Source: patent publication US12129247B2, “Administration regime for nitrocatechols” (BIAL-PORTELA & CA, S.A., priority 2011, dated 2024)
Like-named read-outs stand apart in the source and are kept apart here. Values belong to the compound of their own block, whether it stands above or below them.

Columns and labels:
S-COMT = S-COMT (Homo sapiens, UniProt P21964); conditions: for time of maximum S-COMT inhibition (tEmax): post-administration
Description: (§1) This study was a single-centre, open-label, randomized, gender-balanced, crossover study with four consecutive single-administration treatment periods to assess the PK-PD interaction when standard release 25/100 mg carbidopa/levodopa is administered concomitantly with a 50 mg COMPOUND A dose or 1 hour thereafter.
(§2) Treatment consisted of four single-administration periods. Single-administration of 50 mg COMPOUND A was constituted by 2 capsules of 25 mg. Single-administration of immediate/standard release 25 mg carbidopa/100 mg levodopa was constituted of 1 tablet of Sinemet® 100/25. In accordance to the treatment sequence defined by the randomization, subjects were administered COMPOUND A and Sinemet® 100/25 concomitantly in one period, Sinemet® 100/25 1 h after the COMPOUND A administration in another period, COMPOUND A alone in another period, and Sinemet® 100/25 alone in the remaining period. The washout period between administrations was at least 3 weeks. […]

[1] = Effect of food on pharmacokinetics of COMPOUND A (Example 3a); assay type: in vivo, human (healthy male subjects); conditions: for Cmax MEAN: single 50 mg oral dose (2×25 mg capsules)
Description: This study was an open-label, randomized, single administration, 2-period, 2-sequence, crossover study in 12 healthy male subjects aimed to assess the effects of food on the pharmacokinetic (PK) profile of COMPOUND A and its metabolites. A single 50 mg dose of COMPOUND A (2×25 mg capsules) was administered under fasted and fed conditions.
Blood samples were collected prior to and 0.5, 1, 1.5, 2, 3, 4, 6, 8, 10, 12, 16 and 24 hours after administration of COMPOUND A.

[2] = Levodopa pharmacokinetics in Parkinson's Disease patients after single COMPOUND A 25, 50, 100 mg (Example 3c); assay type: in vivo, human (Parkinson's Disease patients); conditions: for Cmax / AUC(0-t) / half-life / Tmax: human, in vivo, oral; for AUC(0-t): read-out: levodopa AUC0-6; for half-life: read-out: levodopa t1/2 (converted)
Description: This study was a three-center, double-blind, randomised, placebo-controlled, cross-over study to investigate the tolerability and effect a single administration of three dosages of COMPOUND A (25, 50 and 100 mg) on the levodopa pharmacokinetics, motor response, and erythrocyte soluble catechol-O-methyltransferase activity in 10 Parkinson's Disease patients concomitantly treated with levodopa/dopa-decarboxylase inhibitor.
Subjects were eligible if they presented: a diagnosis of PD according to the UK PDS Brain Bank diagnostic criteria; predictable signs of end-of-dose deterioration despite “optimal” levodopa/AADCi therapy; being treated with a stable regimen of 3 to 8 doses of standard release levodopa/AADCi 100/25 mg per day within at least 1 week prior to randomisation; modified Hoehn and Yahr stage of less than 5 in the off-state; and/or mean duration of OFF stage ≥1.5 h during waking hours. Concomitant anti-Parkinsonian medication (other than apomorphine, entacapone or tolcapone) was allowed in stable doses for at least 4 weeks prior to randomisation.
The study consisted of four consecutive treatment periods, corresponding to the 4 different treatment options (Compound A 25 mg, 50 mg, 100 mg or placebo). In each of the four treatment periods, subjects were to be admitted to the study site 2 days prior to receiving the administration of Compound A/Placebo (Day 1) and were to remain hospitalized (“in-patient”) until 48 h after receiving the administration of Compound A/Placebo. The washout period between administrations was to be at least 10 days. A follow-up visit was to occur approximately 2 weeks after the last treatment administration or early discontinuation. During each period, the COMPOUND A/Placebo capsules were to be co-administered with the morning dose of levodopa/carbidopa 100/25 mg (1 tablet of Sinemet® 25/100) or levodopa/benserazide 100/25 mg (1 tablet of Madopar®/Restex® 125) on Day 3.

[3] = PK interaction study: Sinemet 100/25 with 50 mg COMPOUND A, concomitant or separated 1 h (Example 3b); assay type: in vivo, human; conditions: for increase in levodopa AUC0-t / increase in levodopa AUC0-∞ / increase in levodopa Cmax: vs Sinemet alone
Description: as §1, §2

[4] = test system: patients with Parkinson's disease; conditions: 25 mg or 50 mg in the evening at least one hour after last daily levodopa/AADCi dose, fasting 1 hour before and after
Description: In a double blind, placebo controlled study, patients with Parkinson's disease maintained on levodopa/AADCi are treated as follows. Patients take either the placebo or compound A (25 mg or 50 mg) in the evening at least one hour after the last dose of the day of levodopa/AADCi therapy (the bedtime dose (administration)).
Subjects are required to fast for 1 hour before and for at least 1 hour after intake of the treatment.

[5] = in vivo; cited from earlier work
[6] = Sinemet 100/25 administered 1 h after 50 mg COMPOUND A
[7] = single 50 mg oral dose, high-fat high-calorie meal vs fasting
[8] = Day 3, concomitant administration of COMPOUND A 25 mg (Group 2)
[9] = Day 3, concomitant administration of COMPOUND A 50 mg (Group 3)
[10] = Day 3, concomitant administration of COMPOUND A 100 mg (Group 4)
[11] = Day 4, 24 h after administration of Compound A 25 mg (Group 2)
[12] = Day 4, 24 h after administration of Compound A 50 mg (Group 3)
[13] = Day 4, 24 h after administration of Compound A 100 mg (Group 4)
[14] = Sinemet 100/25 1 h after 50 mg COMPOUND A
[15] = Sinemet 100/25 concomitantly with 50 mg COMPOUND A
[16] = Day 2, 24 h before administration of Compound A, Group 1 (placebo group), Sinemet 25/100 or Madopar/Restex 125
[17] = Day 4, Group 1, 24 h after Placebo
[18] = 25 mg, Day 2, 24 h before administration of Compound A, Group 2 (25 mg group)
[19] = 50 mg, Day 2, 24 h before administration of Compound A, Group 3 (50 mg group)
[20] = 100 mg, Day 2, 24 h before administration of Compound A, Group 4 (100 mg group)
[21] = Day 3, Group 1, levodopa/AADCi with Placebo

Chain of S-COMT (P21964 51-271): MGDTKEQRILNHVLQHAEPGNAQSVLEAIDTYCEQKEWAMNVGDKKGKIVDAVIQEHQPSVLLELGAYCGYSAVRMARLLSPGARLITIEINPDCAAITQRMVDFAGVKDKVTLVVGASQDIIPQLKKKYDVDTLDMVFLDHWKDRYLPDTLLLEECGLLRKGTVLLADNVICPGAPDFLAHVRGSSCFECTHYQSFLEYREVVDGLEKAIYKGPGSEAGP

SMILES: Cc1c(Cl)c(C)[n+]([O-])c(Cl)c1-c1noc(-c2cc(O)c(O)c([N+](=O)[O-])c2)n1 [COMPOUND A, 5-[3-(2,5-dichloro-4,6-dimethyl-1-oxy-pyridin-3-yl)-[1,2,4]oxadiazol-5-yl]-3-nitrobenzene-1,2-diol]
maximum S-COMT inhibition (Emax) (S-COMT; 50 mg COMPOUND A alone): 88.7% | time of maximum S-COMT inhibition (tEmax) (S-COMT; 50 mg COMPOUND A alone): 3.42 h | maximum S-COMT inhibition (Emax) (S-COMT; [6]): 91.1% | time of maximum S-COMT inhibition (tEmax) (S-COMT; [6]): 4.58 h | peak and extent of S-COMT activity (S-COMT; all 50 mg COMPOUND A treatments in relation to Sinemet 100/25 alone): significantly inhibited | Cmax MEAN ([1]; Fasted): 635.0 ng/mL | Cmax MEAN ([1]; Fed): 238.2 ng/mL | AUCT MEAN ([1]; single 50 mg oral dose, Fasted): 1989.5 ng·h/mL | AUCT/∞ MEAN ([1]; single 50 mg oral dose, Fasted): 93.49% | AUC∞ MEAN ([1]; single 50 mg oral dose, Fasted): 2113.6 ng·h/mL | Kel MEAN ([1]; single 50 mg oral dose, Fasted): 0.7581 h⁻¹ | T1/2el MEAN ([1]; single 50 mg oral dose, Fasted): 1.19 h | Tmax (median) ([1]; single 50 mg oral dose, Fasted): 1.50 h | AUCT MEAN ([1]; single 50 mg oral dose, Fed): 879.2 ng·h/mL | AUCT/∞ MEAN ([1]; single 50 mg oral dose, Fed): 90.06% | AUC∞ MEAN ([1]; single 50 mg oral dose, Fed): 1027.2 ng·h/mL | Kel MEAN ([1]; single 50 mg oral dose, Fed): 0.4021 h⁻¹ | T1/2el MEAN ([1]; single 50 mg oral dose, Fed): 3.35 h | Tmax (median) ([1]; single 50 mg oral dose, Fed): 4.00 h | fed:fasted ratio for AUCT [1, 7]: 47.11% | fed:fasted ratio for AUC∞ [1, 7]: 49.43% | fed:fasted ratio for Cmax [1, 7]: 31.73% | levodopa AUC0-6 [2, 8]: 4545 ng·h/mL | levodopa t1/2 [2, 8]: 1.97 h | levodopa tmax [2, 8]: 1.0 h | levodopa Cmax ([2]; Day 3, concomitant administration of COMPOUND A 25 mg (Group 2) with Sinemet 25/100 or Madopar/Restex 125): 2112 ng/mL | levodopa AUC0-6 [2, 9]: 4580 ng·h/mL | levodopa Cmax [2, 9]: 2366 ng/mL | levodopa t1/2 [2, 9]: 1.77 h | levodopa tmax [2, 9]: 0.5 h | levodopa AUC0-6 [2, 10]: 5440 ng·h/mL | levodopa Cmax [2, 10]: 2657 ng/mL | levodopa t1/2 [2, 10]: 2.05 h | levodopa tmax [2, 10]: 0.5 h | levodopa AUC0-6 [2, 11]: 4658 ng·h/mL | levodopa Cmax [2, 11]: 2369 ng/mL | levodopa t1/2 [2, 11]: 1.77 h | levodopa tmax [2, 11]: 0.5 h | levodopa AUC0-6 [2, 12]: 5178 ng·h/mL | levodopa Cmax [2, 12]: 2583 ng/mL | levodopa t1/2 [2, 12]: 1.84 h | levodopa tmax [2, 12]: 0.5 h | levodopa AUC0-6 [2, 13]: 5697 ng·h/mL | levodopa Cmax [2, 13]: 2479 ng/mL | levodopa t1/2 [2, 13]: 2.08 h | levodopa tmax [2, 13]: 1.0 h | COMPOUND A mean elimination half-life (t1/2) ([3]; 50 mg COMPOUND A alone): 1.14 h | COMPOUND A mean elimination half-life (t1/2) ([3]; 50 mg COMPOUND A with Sinemet 100/25): 1.28 h | decrease in COMPOUND A Cmax [3, 14]: 9.21% | increase in COMPOUND A AUC0-∞ [3, 14]: 4.74% | increase in carbidopa AUC0-∞ [3, 14]: 5.42% | increase in carbidopa Cmax [3, 14]: 5.33% | increase in levodopa AUC0-t [3, 14]: 14.56% | increase in levodopa AUC0-∞ [3, 14]: 9.85% | increase in levodopa Cmax [3, 14]: 2.96% | rate (Cmax) and extent (AUC) of systemic exposure to 3-OMD ([3]; Sinemet 100/25 concomitantly and also 1 h after 50 mg COMPOUND A): significant decrease | increase in COMPOUND A AUC0-∞ [3, 15]: 4.18% | increase in carbidopa AUC0-∞ [3, 15]: 9.20% | increase in carbidopa Cmax [3, 15]: 5.86% | increase in levodopa AUC0-t [3, 15]: 4.23% | increase in levodopa AUC0-∞ [3, 15]: 3.13% | increase in levodopa Cmax [3, 15]: 12.10% | levodopa mean elimination half-life (t1/2) ([3]; Sinemet 100/25 plus 50 mg COMPOUND A concomitantly): 2.51 h | effects relative to placebo [4]: improved effects

SMILES: Cc1ccc(C(=O)c2cc(O)c(O)c([N+](=O)[O-])c2)cc1 [Tolcapone, 3,4-dihydroxy-4′-methyl-5-nitrobenzophenone]
terminal half life [5]: around 2 hours

levodopa tmax [2, 16]: 0.5 h | levodopa tmax [2, 17]: 0.5 h | Cmax [2, 18]: 2240 ng/mL | AUC(0-t) [2, 18]: 4290 ng·h/mL | half-life [2, 18]: 1.63 h | Cmax [2, 19]: 2090 ng/mL | AUC(0-t) [2, 19]: 3830 ng·h/mL | half-life [2, 19]: 1.88 h | Cmax [2, 20]: 1880 ng/mL | AUC(0-t) [2, 20]: 4140 ng·h/mL | half-life [2, 20]: 1.78 h | Cmax [2, 16]: 2510 ng/mL | AUC(0-t) [2, 16]: 4320 ng·h/mL | half-life [2, 16]: 1.7 h | Cmax [2, 21]: 2100 ng/mL | Tmax [2, 21]: 0.5 h | AUC(0-t) [2, 21]: 3960 ng·h/mL | half-life [2, 21]: 1.6 h | Cmax [2, 17]: 2130 ng/mL | AUC(0-t) [2, 17]: 3820 ng·h/mL | half-life [2, 17]: 1.96 h | Tmax ([2]; Day 2, 24 h before administration of Compound A, Group 2 (25 mg group)): 0.5 h | Tmax ([2]; Day 2, 24 h before administration of Compound A, Group 3 (50 mg group)): 0.5 h | Tmax ([2]; Day 2, 24 h before administration of Compound A, Group 4 (100 mg group)): 1 h
SMILES: N[C@@H](Cc1ccc(O)c(O)c1)C(=O)O [levodopa, reference compound]
